From PubChem BioAssay AID256 (DTP/NCI, 2004)
Inconclusive results and toxic doses are left out.

System: CD2F1 mice, L1210 leukemia ip, survival T/C
Test: NCI In Vivo Anticancer Drug Screen. Data for tumor model L1210 Leukemia (intraperitoneal) in CD2F1 (CDF1) mice
Conditions: higher = longer survival
Outline: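 Transplantable tumor in mice; compound-treated vs vehicle-treated groups. Read-out = treated/control ratio of the measured endpoint.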

[1] = endpoint: mean survival time, dose: 100.0 mg/kg/injection, schedule: Q01DX009 (ip), vehicle: saline with Tween-80
[2] = endpoint: mean survival time, dose: 100.0 mg/kg/injection, schedule: Q04DX003 (ip), vehicle: saline with Tween-80
[3] = endpoint: mean survival time, dose: 200.0 mg/kg/injection, schedule: Q01DX009 (ip), vehicle: saline with Tween-80
[4] = endpoint: mean survival time, dose: 200.0 mg/kg/injection, schedule: Q04DX003 (ip), vehicle: saline with Tween-80
[5] = endpoint: mean survival time, dose: 400.0 mg/kg/injection, schedule: Q01DX009 (ip), vehicle: saline with Tween-80
[6] = endpoint: mean survival time, dose: 400.0 mg/kg/injection, schedule: Q04DX003 (ip), vehicle: saline with Tween-80
[7] = endpoint: mean survival time, dose: 100.0 mg/kg/injection, schedule: Q01DX001 (ip), vehicle: saline with Tween-80
[8] = endpoint: mean survival time, dose: 200.0 mg/kg/injection, schedule: Q01DX001 (ip), vehicle: saline with Tween-80
[9] = endpoint: mean survival time, dose: 25.0 mg/kg/injection, schedule: Q01DX009 (ip), vehicle: saline with Tween-80
[10] = endpoint: mean survival time, dose: 50.0 mg/kg/injection, schedule: Q01DX009 (ip), vehicle: saline with Tween-80
[11] = endpoint: mean survival time, dose: 100.0 mg/kg/injection, schedule: Q04DX002 (ip), vehicle: saline with Tween-80
[12] = endpoint: mean survival time, dose: 25.0 mg/kg/injection, schedule: Q04DX003 (ip), vehicle: saline

SMILES: c1ccc(-c2cc(-c3ccccc3)on2)cc1
- T/C [1]: 96 % of control
- T/C [2]: 93 % of control
- T/C [3]: 94 % of control
- T/C [4]: 94 % of control
- T/C [5]: 97 % of control
- T/C [6]: 98 % of control

SMILES: c1ccc(CN2CCNCC2)cc1
- T/C (endpoint: mean survival time, dose: 6.25 mg/kg/injection, schedule: Q04DX003 (ip), vehicle: saline with Tween-80): 96 % of control
- T/C (endpoint: mean survival time, dose: 12.5 mg/kg/injection, schedule: Q04DX003 (ip), vehicle: saline with Tween-80): 96 % of control
- T/C (endpoint: mean survival time, dose: 25.0 mg/kg/injection, schedule: Q04DX003 (ip), vehicle: saline with Tween-80): 101 % of control

SMILES: CC1=C(c2ccccc2)C(c2ccccc2)c2ccccc21 (configuration not stated)
- T/C [7]: 94 % of control
- T/C [8]: 93 % of control
- T/C (endpoint: mean survival time, dose: 400.0 mg/kg/injection, schedule: Q01DX001 (ip), vehicle: saline with Tween-80): 92 % of control

SMILES: COc1cc2c(cc1OC)C(CC(C)C)=[N+](C)CC2
- T/C [9]: 103 % of control
- T/C [10]: 98 % of control
- T/C [1]: 109 % of control
- T/C [11]: 92 % of control

SMILES: CSc1ccc(N2C(N)=NC(N)=NC2(C)C)cc1
- T/C (endpoint: mean survival time, dose: 25.0 mg/kg/injection, schedule: Q04DX002 (ip), vehicle: saline): 95 % of control
- T/C (endpoint: mean survival time, dose: 50.0 mg/kg/injection, schedule: Q04DX002 (ip), vehicle: saline): 91 % of control

SMILES: O=C1COC(=O)N1
- T/C [2]: 107 % of control
- T/C [4]: 94 % of control
- T/C [6]: 96 % of control

SMILES: COc1cc(OC)c(NC(=O)NC(C)C)cc1Cl
- T/C [1]: 100 % of control
- T/C [3]: 96 % of control
- T/C [5]: 100 % of control

SMILES: CC(=O)Nc1ccc2c(c1)Cc1ccccc1-2
- T/C [1]: 101 % of control
- T/C [2]: 87 % of control
- T/C [3]: 95 % of control
- T/C [4]: 101 % of control
- T/C [5]: 101 % of control
- T/C [6]: 90 % of control

SMILES: O=C(CNC(=O)c1ccccc1)N/N=C/c1ccccc1O
- T/C [1]: 94 % of control
- T/C [3]: 95 % of control
- T/C [5]: 89 % of control

SMILES: COC(=O)c1ccc(O)c([N+](=O)[O-])c1
- T/C [2]: 104 % of control
- T/C [4]: 93 % of control

SMILES: Nc1cc(=O)[nH]c(O)c1C(=O)O
- T/C [10]: 104 % of control
- T/C [1]: 96 % of control

SMILES: Cc1cc(C)c(C(C)(C)O)c(C)c1
- T/C [4]: 98 % of control
- T/C [6]: 106 % of control

SMILES: CCC(=O)c1ccc2c(c1)N(C(C)CN(C)C)c1ccccc1S2 (configuration not stated)
- T/C [12]: 97 % of control
- T/C (endpoint: mean survival time, dose: 50.0 mg/kg/injection, schedule: Q04DX003 (ip), vehicle: saline): 97 % of control
- T/C (endpoint: mean survival time, dose: 100.0 mg/kg/injection, schedule: Q04DX003 (ip), vehicle: saline): 101 % of control

SMILES: CC12OCCN1CC(COc1ccccc1)O2 (configuration not stated)
- T/C [2]: 104 % of control
- T/C [4]: 98 % of control
- T/C [6]: 110 % of control

SMILES: C=CCC(Cc1ccccc1)C1=NC(C)(C)CC(C)O1 (configuration not stated)
- T/C [10]: 101 % of control
- T/C [7]: 97 % of control
- T/C [1]: 97 % of control
- T/C [8]: 103 % of control
- T/C [3]: 94 % of control

SMILES: O=C(O)CCC(NC(=O)OCc1ccccc1)C(=O)OCc1ccccc1 (configuration not stated)
- T/C [2]: 95 % of control
- T/C [4]: 93 % of control
- T/C [6]: 96 % of control

SMILES: O=c1c([N+](=O)[O-])cn(O)cc1[N+](=O)[O-]
- T/C (endpoint: mean survival time, dose: 100.0 mg/kg/injection, schedule: Q01DX001 (ip), vehicle: alkali diluted with saline): 100 % of control
- T/C (endpoint: mean survival time, dose: 200.0 mg/kg/injection, schedule: Q01DX001 (ip), vehicle: alkali diluted with saline): 94 % of control
- T/C (endpoint: mean survival time, dose: 400.0 mg/kg/injection, schedule: Q01DX001 (ip), vehicle: alkali diluted with saline): 100 % of control

SMILES: C#CC[N+](C)(C)CCNC(=O)CCCCCCCCCCCCCCC
- T/C (endpoint: mean survival time, dose: 75.0 mg/kg/injection, schedule: Q01DX001 (ip), vehicle: saline): 102 % of control

SMILES: O=C(O)c1cccc(N=Nc2ccc(N(CCCl)CCCl)cc2)c1
- T/C (endpoint: mean survival time, dose: 10.0 mg/kg/injection, schedule: Q01DX009 (ip), vehicle: Klucel (hydroxypropylcellulose) (HPC)): 121 % of control
- T/C (endpoint: mean survival time, dose: 20.0 mg/kg/injection, schedule: Q01DX009 (ip), vehicle: Klucel (hydroxypropylcellulose) (HPC)): 97 % of control
- T/C (endpoint: mean survival time, dose: 40.0 mg/kg/injection, schedule: Q01DX009 (ip), vehicle: Klucel (hydroxypropylcellulose) (HPC)): 89 % of control

SMILES: CCCCCCCCCCCCCCCC(=O)N(CCCN)CCCN(CCCN)C(=O)CCCCCCCCCCCCCCC
- T/C [9]: 97 % of control
- T/C [10]: 89 % of control

SMILES: CCCCOP(=O)(OCCCC)OC(=C(Cl)Cl)P(=O)(OCCCC)OCCCC
- T/C (endpoint: mean survival time, dose: 100.0 mg/kg/injection, schedule: Q04DX002 (ip), vehicle: saline): 89 % of control
- T/C (endpoint: mean survival time, dose: 200.0 mg/kg/injection, schedule: Q04DX002 (ip), vehicle: saline): 92 % of control

SMILES: ClCCCN1CCCCC1CCl (configuration not stated)
- T/C (endpoint: mean survival time, dose: 3.12 mg/kg/injection, schedule: Q04DX003 (ip), vehicle: saline): 104 % of control
- T/C (endpoint: mean survival time, dose: 6.25 mg/kg/injection, schedule: Q04DX003 (ip), vehicle: saline): 113 % of control
- T/C [12]: 173 % of control

SMILES: O=C(O)c1ccc(CC2CCC2)cc1
- T/C [11]: 96 % of control
- T/C (endpoint: mean survival time, dose: 200.0 mg/kg/injection, schedule: Q04DX002 (ip), vehicle: saline with Tween-80): 96 % of control
- T/C (endpoint: mean survival time, dose: 400.0 mg/kg/injection, schedule: Q04DX002 (ip), vehicle: saline with Tween-80): 89 % of control

SMILES: CC1(C)OC2C(CO)OC(n3nc(SCc4ccccc4)c(=S)[nH]c3=O)C2O1 (configuration not stated)
- T/C (endpoint: median survival time, dose: 12.5 mg/kg/injection, schedule: Q01DX005 (ip), vehicle: distilled water + Tween-80): 96 % of control
- T/C (endpoint: median survival time, dose: 25.0 mg/kg/injection, schedule: Q01DX005 (ip), vehicle: distilled water + Tween-80): 103 % of control
- T/C (endpoint: median survival time, dose: 50.0 mg/kg/injection, schedule: Q01DX005 (ip), vehicle: distilled water + Tween-80): 96 % of control
- T/C (endpoint: median survival time, dose: 100.0 mg/kg/injection, schedule: Q01DX005 (ip), vehicle: distilled water + Tween-80): 96 % of control
- T/C (endpoint: median survival time, dose: 200.0 mg/kg/injection, schedule: Q01DX005 (ip), vehicle: distilled water + Tween-80): 95 % of control

SMILES: CC(=O)c1ccc[n+](Cc2ccc([N+](=O)[O-])cc2)c1
- T/C (endpoint: mean survival time, dose: 25.0 mg/kg/injection, schedule: Q01DX009 (ip), vehicle: saline): 117 % of control
- T/C (endpoint: mean survival time, dose: 50.0 mg/kg/injection, schedule: Q01DX009 (ip), vehicle: saline): 109 % of control
- T/C (endpoint: mean survival time, dose: 100.0 mg/kg/injection, schedule: Q01DX009 (ip), vehicle: saline): 108 % of control

SMILES: O=[N+]([O-])c1c(O)c(CNCCCO)cc(CNCCCO)c1O
- T/C (endpoint: median survival time, dose: 6.25 mg/kg/injection, schedule: Q01DX009 (ip), vehicle: saline): 100 % of control
- T/C (endpoint: median survival time, dose: 12.5 mg/kg/injection, schedule: Q01DX009 (ip), vehicle: saline): 97 % of control
- T/C (endpoint: median survival time, dose: 25.0 mg/kg/injection, schedule: Q01DX009 (ip), vehicle: saline): 88 % of control
- T/C (endpoint: median survival time, dose: 50.0 mg/kg/injection, schedule: Q01DX009 (ip), vehicle: saline): 92 % of control

SMILES: N#C[CH2][Sn]([I])([c]1ccccc1)[c]1ccccc1
- T/C (endpoint: mean survival time, dose: 0.39 mg/kg/injection, schedule: Q01DX009 (ip), vehicle: saline): 103 % of control
- T/C (endpoint: mean survival time, dose: 0.78 mg/kg/injection, schedule: Q01DX009 (ip), vehicle: saline): 100 % of control

SMILES: CCc1cccc(OS(=O)(=O)c2cccc([N+](=O)[O-])c2)c1
- T/C [1]: 98 % of control
- T/C [2]: 103 % of control
- T/C [3]: 102 % of control
- T/C [4]: 103 % of control
- T/C [5]: 93 % of control
- T/C [6]: 101 % of control

SMILES: C=C(C)C12CC(C)C34OC5(CCCCCCCC(C)C6C(C)C(OC(=O)c7ccccc7)C(O)(C(O)C7(COC(=O)CCCCCCCCCCCCCCC)OC7C3C1O5)C64)O2 (configuration not stated)
- T/C (endpoint: mean survival time, dose: 1.5 micrograms/kg/injection, schedule: Q01DX009 (ip), vehicle: saline): 103 % of control
- T/C (endpoint: mean survival time, dose: 3.1 micrograms/kg/injection, schedule: Q01DX009 (ip), vehicle: saline): 104 % of control
- T/C (endpoint: mean survival time, dose: 6.2 micrograms/kg/injection, schedule: Q01DX009 (ip), vehicle: saline): 97 % of control
- T/C (endpoint: mean survival time, dose: 12.5 micrograms/kg/injection, schedule: Q01DX009 (ip), vehicle: saline): 104 % of control
- T/C (endpoint: mean survival time, dose: 25.0 micrograms/kg/injection, schedule: Q01DX009 (ip), vehicle: saline): 95 % of control
- T/C (endpoint: mean survival time, dose: 50.0 micrograms/kg/injection, schedule: Q01DX009 (ip), vehicle: saline): 101 % of control

SMILES: OCCNCCO
- T/C [1]: 93 % of control
- T/C [2]: 97 % of control
- T/C [3]: 93 % of control
- T/C [4]: 103 % of control
- T/C [5]: 96 % of control
- T/C [6]: 107 % of control
